Measurements as given in patent US12357561B2, “Compositions and uses of alpha-adrenergic agents” (LEVATION PHARMA LTD., priority 2016, dated 2025).

Test system: New Zealand rabbits
Assay: Ocular observations after injection of oxymetazoline solutions into the post-septal fat pad of rabbits
Format: in vivo, rabbit
Settings: for Palpebral Reflex / Threat Test: 100 μl post-septal fat pad injection; for Palpebral Reflex / Threat Test / eyelid closure (notes): Right Eye
Description: Rabbits without ocular pathology received oxymetazoline solutions by ocular injection. The evolution was tested postoperative, 1, 2, 3, 7, 10, and 14 day after oxymetazoline solutions administration. Eyelids were analyzed by histology at the end of the experiment. Endpoints included inflammation, fibrosis, pre- and post-septal fat, status of levator muscle and Müller's muscle, presence of vascular injury or necrosis or ischemic injury to eyelid tissues.
• Animals: female New Zealand rabbits (2.5-3 kg) • Sedation: atropine sulfate and midazolam IV (ear vein) • Anesthesia: induction with Propofol 1% (10 mg/kg) by ear vein • Maintenance with isoflurane (inhalant anesthesia) • Oxymetazoline solutions • Slit lamp Method Baseline Measures (1st Phase) • I. Animals (n=2); 2.5-3 kg New Zealand rabbit • II. Without sedation and anesthesia • III. Photographic record with a ruler (to serve as a standard measure of distance). Three sets of photos per measurements taken in dim lighting to keep rabbits from squinting • IV. 50 μl of 10% phenylephrine was administered via topical into the right eye (RE) • V. Photographic record with a ruler. Three sets of photos per measurements. After 20-30 minutes post-dose. • VI. Animals returned to animal housing. Test Article (Oxymetazoline Solutions) (2nd Phase) • I. Animals (n=3/each group); 2.5-3 kg New Zealand rabbit • II. Photographic record with a ruler (to serve as a standard measure of distance). Three sets of photos per measurements taken in dim lighting to keep rabbits from squinting. • III. Sedation with atropine sulfate and midazolam • IV. Induction with Propofol • V. Maintenance with isoflurane • VI. Ocular injection of oxymetazoline solutions or PBS (phosphate-buffered saline) • a. Group A: oxymetazoline 1 mg/ml in PBS (RE) and PBS (LE) • b. Group B: oxymetazoline 3 mg/ml in PBS (RE) and PBS (LE) • c. Group C: oxymetazoline 10 mg/ml in PBS (RE) and PBS (LE) All animals were administered 100 μI (0.1 ml) of the oxymetazoline solution (RE) or PBS vehicle control (LE) via an injection into the post-septal fat pad, adjacent to Müller's muscle of both eyelids on Day 0. For this injection, a 30G needle was used; test article was administered at least 4 mm away from the site of the needle entry to prevent reflux of fluid through the hole. • VII. Follow-up. • VIII. Euthanized animals 14 days after the injection of oxymetazoline solutions to process the eyelids tissues. • a. Harvest both eyelids from each animal and store in formalin • b. Histology (H/E staining) Follow-Up Follow-up included: • Eyelid retraction/ptosis measurements & digital photos with eyes directly facing camera and a ruler in the frame of the photograph to standardize distances. Three sets of photos per measurement taken in dim lighting to keep rabbits from squinting. • Slit-lamp biomicroscopy • Daily general health observations • Body weights prior to dosing and prior to sacrifice Study Variables • I. Palpebral fissure distance • II. Margin reflex distance 1 Results • Group A (1 mg/ml) • Notes: • pre-injection.
Group B (3 mg/ml) Notes: • pre-injection.

[1] = Group A 1 mg/ml in PBS, Day 2, animals #1/#2/#3
[2] = Group A 1 mg/ml in PBS, Day 3 morning, animals #1/#2/#3
[3] = Group A 1 mg/ml, Day 2 (3 h post-injection)
[4] = Group B 3 mg/ml in PBS, Day 2, animals #1/#2
[5] = Group B 3 mg/ml in PBS, Day 3 afternoon, animals #1/#2
[6] = Group B 3 mg/ml in PBS, Day 3 morning, animals #1/#2
[7] = Group B 3 mg/ml in PBS, Day 4 morning, animals #1/#2
[8] = Group B 3 mg/ml, Day 2 (3 h post-injection)

Palpebral Reflex [1]: Abolished/Abolished/
Threat Test [1]: Abolished/Abolished/
Threat Test (Group A 1 mg/ml in PBS, Day 3 afternoon, animals #1/#2/#3): Delayed/Delayed/Delayed
Palpebral Reflex [2]: Delayed/Delayed/Delayed
Threat Test [2]: Abolished/Abolished/
Threat Test (Group A 1 mg/ml in PBS, Day 4 afternoon, animals #1/#2/#3): Delayed/Delayed/Delayed
Threat Test (Group A 1 mg/ml in PBS, Day 4 morning, animals #1/#2/#3): Delayed/Delayed/Delayed
ocular discomfort (notes) [3]: Animal show ocular discomfort
Palpebral Reflex [4]: Abolished/Abolished
Threat Test [4]: Abolished/Abolished
Palpebral Reflex [5]: Delayed/Delayed
Threat Test [5]: Abolished/Abolished
Palpebral Reflex [6]: Delayed/Delayed
Threat Test [6]: Abolished/Abolished
Threat Test (Group B 3 mg/ml in PBS, Day 4 afternoon, animals #1/#2): Delayed/Delayed
Palpebral Reflex [7]: Delayed/Delayed
Threat Test [7]: Delayed/Delayed
Threat Test (Group B 3 mg/ml in PBS, Day 5, animals #1/#2): Delayed/
ocular discomfort (notes) [8]: Animal show ocular discomfort
SMILES: Cc1cc(C(C)(C)C)c(O)c(C)c1CC1=NCCN1 [oxymetazoline]
eyelid closure (notes) [3]: pressure applied to close eyelid
eyelid closure (notes) (Group A 1 mg/ml, Day 3 morning): pressure applied to close eyelid
eyelid closure (notes) [8]: pressure applied to close eyelid
eyelid closure (notes) (Group B 3 mg/ml, Day 3 afternoon): pressure applied to close eyelid
eyelid closure (notes) (Group B 3 mg/ml, Day 3 morning): pressure applied to close eyelid
eyelid closure (notes) (Group B 3 mg/ml, Day 4 morning): pressure applied to close eyelid
